Consider 2 compounds from US11331301B2, “Compositions and methods for treating cancer” (The State of Israel, Ministry of Agriculture & Rural …, priority 2017, dated 2022).

Type in all cases: cell-based
One data set has as its system HCT116 cells. The data set is described as follows: Cytotoxic activity with CB1, CB2 and GPR55 receptor antagonists, Alamar Blue. Particulars: THCA 0.12 mM. On the procedure:
FIGS. 12A-C depict the determination of HCT116 cell viability using Alamar Blue fluorescence (Resazurin assay) as a function of cytotoxic effect. HCT116 cells were seeded (50,000 per well) in triplicate in 500 μL growing media and incubated for 24 h at 37° C. in a humidified 5% CO2-95% air atmosphere. […] Non-treated are the cells without TNF-α and treatments. Relative fluorescence at the excitation/emission of 544/590 nm was measured. Values were calculated as percentage of live cells relative to the non-treated (cells without TNF-α and treatments) control after reducing the autofluorescence of Alamar Blue without cells.
FIG. 12D depicts determination of HCT116 cell viability using Alamar Blue fluorescence (resazurin assay) as a function of cytotoxic effect. HCT116 cells were seeded (50,000 per well) in triplicate in 500 μL growing media and incubated for 24 hours at 37° C. in a humidified 5% CO2-95% air atmosphere. […] Treatments with F7, F1-F9, and combination of fractions without antagonists served as a positive control (Con). Non-treated are the cells without TNF-α and treatments. […] Relative fluorescence at the excitation/emission of 544/590 nm was measured. Values were calculated as percentage of live cells relative to the non-treated (cells without TNF-α and treatments) control after reducing the autofluorescence of Alamar Blue without cells. […]
For orientation: The colour change of resazurin is a common sign of viable cells or microbes.

A further data set has as its system CB2. Nature of the data set: Relative gene expression by qPCR after TNF-α. The settings on record: HCT-116; overnight TNF-α; versus GAPDH, 2-ΔΔCT; treated versus non-treated cells. An excerpt:
(§1) Transcripts for CB1, CB2 and GPR55 were detected by qPCR in HCT116 cells.

The next data set deals with GPR55. The data set is described as follows: Relative gene expression by qPCR after TNF-α. Particulars: HCT-116; overnight TNF-α; versus GAPDH, 2-ΔΔCT; treated versus non-treated cells.
Source text: as §1

For a further data set, the system named is CB1. The data set is described as follows: Relative gene expression by qPCR after TNF-α. Particulars: HCT-116; overnight TNF-α; versus GAPDH, 2-ΔΔCT; treated versus non-treated cells.
Source text: as §1
(In qPCR the cycle at which signal appears reflects the starting amount.)

For the compound `CCCCCc1cc2c(c(O)c1C(=O)O)[C@@H]1C=C(C)CC[C@H]1C(C)(C)O2` [THCA, tetrahydrocannabinolic acid], the “effect of CB2 antagonist (SR144528) on cytotoxic activity” value in the data set on HCT116 cells (C2F 0.2 mg/mL, F7 0.08 mg/mL) was “significant reduction in cytotoxic activity”. In addition, in the data set on HCT116 cells, the “effect of CB1 antagonist (Rimonabant) on cytotoxic activity” value was “significant reduction in cell cytotoxic activities”.

Take TNF-α: the “Mean relative expression of CB2” value with CB2 worked out at 5.84. Also, the “Mean relative expression of GPR55” value with GPR55 was found to be 5.26. In the data set on CB1, the “Mean relative expression of CB1” value came out at 1.31.
